pIC50: −log10 of the molar value. Several values for one entry are separate records, joined by “and”; a condition that tells them apart may be missing. Equal values may be shown once. Read-outs that look alike come from different tables or passages of the source.
What was measured:
[1] = molecular target: human ACC1 (Homo sapiens, UniProt Q13085); assay: Human ACC1 enzyme assay (ADP-Glo); assay type: biochemical; conditions: individual measurement (measurement no./preparation no. in table); read-out: ACC 1 IC50
Experimental: (§1) Typical concentrations were in the range of 1.75 μl.

[2] = tested on: human ACC1; assay: Human ACC1 enzyme assay (ADP-Glo); assay type: biochemical; conditions: for Ratio IC50s ACC2/ACC1 (respective measurement): pairwise, same dilution series
Experimental: as §1

[3] = Pharmacokinetic parameters in the rat (i.v. and intragastric); assay type: in vivo; conditions: for clearance / Vd / half-life: male, plasma; for clearance: read-out: CLplasma (converted); for Vd: read-out: Vss; for half-life: terminal, read-out: t½ (converted); for F: oral bioavailability
Experimental: Determination of the Pharmacokinetic Parameters of a Test Substance in the Rat and in the Dog For this, the test substances were applied in dissolved form both for intravenous, and for intragastric application, wherein compatible solubilizers such as PEG400 and/or ethanol were used in a compatible amount. […] Administration was as a bolus injection in the male rat and as an infusion in the female dog (15 min) At various time points after the bolus injection, and before and after the 15-minute infusion, blood samples of about 100-150 μl were removed via a catheter either from the jugular vein (rat) or from the saphenous vein (dog). Lithium-heparin was added as anticoagulant to the blood samples and they were stored in a refrigerator until required for further processing. After centrifugation of the samples for 15 min at 3000 rpm, an aliquot of 100 μl was taken from the supernatant (plasma) and was precipitated by adding 400 μl of cold ACN or methanol (absolute). The precipitated samples were frozen-out at […] overnight, then centrifuged again at 3000 rpm for 15 min, before 150 μl of the clear supernatant were removed to determine the concentration. The analysis was effected by means of an Agilent 1200 HPLC system with connected LCMS/MS detection. Calculation of the PK parameters (using PK calculation software, e.g. WinNonLin®): CLplasma: total plasma clearance of the test substance (in 1*kg/h); CLblood: total blood clearance of the test substance (in 1*kg/h), where (CLblood=CLplasma*Cp/Cb); Vss: apparent steady-state distribution volume (in 1/kg); t½: half-life within a specified interval (here: terminal t½, in h); AUCnorm: area under the plasma concentration time profile from time point zero extrapolated to infinity divided by the dose normalized for body weight (in kg*l/h); AUC(0-tn)norm: integrated area under the plasma concentration time profile from time point zero until the last time point at which a plasma concentration was measurable, divided by the dose normalized for body weight (in kg*l/h); Cmax: maximum concentration of the test substance in the plasma (in μg/l); Cmax,norm: maximum concentration of the test substance in the plasma divided by the dose normalized for body weight (in kg/l); Cb/Cp: ratio of the blood to plasma concentration distribution. […] At various time points after administration, blood samples of about 100-150 μl were removed via a catheter either from the jugular vein (rat) or from the saphenous vein (dog). Lithium-heparin was added as anticoagulant to the blood samples and they were stored in a refrigerator until required for further processing. After centrifugation of the samples for 15 min at 3000 rpm, an aliquot of 100 μl was taken from the supernatant (plasma) and was precipitated by adding 400 μl of cold ACN or methanol (absolute). The precipitated samples were frozen-out at −20° C. overnight, then centrifuged at 3000 rpm for 15 min, before 150 μl of the clear supernatant were removed to determine the concentration. The analysis was effected by means of an Agilent 1200 HPLC system with connected LCMS/MS detection. […]

[4] = molecular target: human ACC2 (Homo sapiens (Human), UniProt O00763); assay: Human ACC2 enzyme assay (ADP-Glo); conditions: read-out: ACC 2 IC50; individual measurement (measurement no./preparation no. in table)
human ACC2, sequence (O00763 27-2458 limits assumed): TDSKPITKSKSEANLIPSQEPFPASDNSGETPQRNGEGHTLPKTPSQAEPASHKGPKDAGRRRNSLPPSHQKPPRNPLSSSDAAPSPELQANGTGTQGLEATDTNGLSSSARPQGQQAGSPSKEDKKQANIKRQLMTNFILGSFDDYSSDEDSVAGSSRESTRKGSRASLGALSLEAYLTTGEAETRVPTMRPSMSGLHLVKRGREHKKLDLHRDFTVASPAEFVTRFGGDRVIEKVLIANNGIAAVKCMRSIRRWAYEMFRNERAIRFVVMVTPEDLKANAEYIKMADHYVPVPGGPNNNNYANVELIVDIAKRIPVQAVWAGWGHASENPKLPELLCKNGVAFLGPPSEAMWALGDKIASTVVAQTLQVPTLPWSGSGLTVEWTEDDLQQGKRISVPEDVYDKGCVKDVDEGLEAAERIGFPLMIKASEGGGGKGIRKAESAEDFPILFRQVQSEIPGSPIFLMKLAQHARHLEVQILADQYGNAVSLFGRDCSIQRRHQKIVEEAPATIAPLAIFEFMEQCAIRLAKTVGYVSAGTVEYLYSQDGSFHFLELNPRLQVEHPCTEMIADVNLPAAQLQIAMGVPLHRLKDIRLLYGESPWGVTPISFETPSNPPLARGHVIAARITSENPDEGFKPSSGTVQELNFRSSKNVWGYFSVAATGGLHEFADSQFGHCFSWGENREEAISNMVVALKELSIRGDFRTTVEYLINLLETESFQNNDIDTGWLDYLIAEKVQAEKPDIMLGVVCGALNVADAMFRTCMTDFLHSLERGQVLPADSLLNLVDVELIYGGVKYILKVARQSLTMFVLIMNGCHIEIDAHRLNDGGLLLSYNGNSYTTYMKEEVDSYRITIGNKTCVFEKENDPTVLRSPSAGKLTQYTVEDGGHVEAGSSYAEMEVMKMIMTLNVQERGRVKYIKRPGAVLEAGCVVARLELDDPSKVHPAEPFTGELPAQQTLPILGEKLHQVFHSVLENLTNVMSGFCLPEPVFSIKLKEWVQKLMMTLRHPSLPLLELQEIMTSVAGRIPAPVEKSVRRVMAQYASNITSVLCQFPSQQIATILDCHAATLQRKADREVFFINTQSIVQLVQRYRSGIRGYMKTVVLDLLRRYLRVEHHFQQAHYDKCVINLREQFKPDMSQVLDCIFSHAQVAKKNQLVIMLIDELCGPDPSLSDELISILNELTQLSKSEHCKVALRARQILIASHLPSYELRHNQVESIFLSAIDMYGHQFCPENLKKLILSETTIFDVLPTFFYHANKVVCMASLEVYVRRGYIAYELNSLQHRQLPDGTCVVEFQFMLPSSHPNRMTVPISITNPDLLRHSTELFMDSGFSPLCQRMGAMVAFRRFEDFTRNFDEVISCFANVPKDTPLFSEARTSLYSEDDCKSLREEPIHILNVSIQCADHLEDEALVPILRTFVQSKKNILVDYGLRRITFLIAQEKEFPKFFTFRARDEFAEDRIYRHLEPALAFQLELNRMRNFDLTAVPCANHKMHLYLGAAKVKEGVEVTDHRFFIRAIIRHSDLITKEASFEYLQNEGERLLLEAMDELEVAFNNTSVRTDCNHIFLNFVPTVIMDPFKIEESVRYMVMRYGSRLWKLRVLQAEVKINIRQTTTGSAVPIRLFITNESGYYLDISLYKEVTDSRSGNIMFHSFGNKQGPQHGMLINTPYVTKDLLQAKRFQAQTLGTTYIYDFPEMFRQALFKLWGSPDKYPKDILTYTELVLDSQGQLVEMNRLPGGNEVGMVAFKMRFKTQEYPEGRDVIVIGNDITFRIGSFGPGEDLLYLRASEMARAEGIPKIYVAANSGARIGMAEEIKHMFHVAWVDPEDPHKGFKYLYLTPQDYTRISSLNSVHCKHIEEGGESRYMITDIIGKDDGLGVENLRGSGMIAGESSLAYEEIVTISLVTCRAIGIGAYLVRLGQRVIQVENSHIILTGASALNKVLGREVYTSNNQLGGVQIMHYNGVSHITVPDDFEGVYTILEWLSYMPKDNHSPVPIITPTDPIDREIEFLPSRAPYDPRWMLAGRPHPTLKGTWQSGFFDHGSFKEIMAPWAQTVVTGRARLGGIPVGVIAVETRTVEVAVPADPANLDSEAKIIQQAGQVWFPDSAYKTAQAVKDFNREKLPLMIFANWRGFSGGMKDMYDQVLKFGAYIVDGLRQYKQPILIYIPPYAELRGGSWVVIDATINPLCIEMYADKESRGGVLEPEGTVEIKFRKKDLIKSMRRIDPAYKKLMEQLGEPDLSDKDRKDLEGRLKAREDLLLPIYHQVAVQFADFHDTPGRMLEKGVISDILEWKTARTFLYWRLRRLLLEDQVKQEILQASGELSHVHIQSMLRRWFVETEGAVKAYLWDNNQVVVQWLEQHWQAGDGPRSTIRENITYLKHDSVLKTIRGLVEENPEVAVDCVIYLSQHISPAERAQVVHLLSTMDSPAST

[5] = Prediction of human pharmacokinetic parameters and human therapeutic dosage (single species scaling from rat); conditions: human, plasma; for AUC: read-out: calc. AUC (human); for clearance: predicted (fu-corrected) from rat PK, read-out: pred. CL (human) (converted)
Experimental: The human pharmacokinetic (PK) parameters (Table 9) were predicted based on the in vivo PK parameters obtained for rats (single species scaling), taking into account the interspecies differences in the free fraction (fu) in the plasma. The effective AUC (area under curve) was determined based on the measured plasma concentration time profile for in vivo efficacy in the PC3 tumour model of the mouse (nu/nu mouse). The therapeutic human dosage was determined using the predicted human clearance (CL), assuming 100% bioavailability (F=1) and using the effective AUC in the animal model according to the formula below: […]

[6] = Maximum tolerated dose (MTD) in female nude mice; assay type: in vivo, mouse; conditions: for Deaths: 21 days; for MTD at 21 days: female, NMRI-nude (nu/nu), mouse, in vivo, administration once per day
Experimental: To this end, initially the maximum tolerable dose (MTD) was determined using the following protocol:
The MTD was defined as the highest dose which could be administered without any animal dying during the treatment phase, and without any body weight loss of more than 10% compared to the initial weight.
(§2) Administration route: oral
• (Solutol HS15: polyoxyethylene ester of 12-hydroxystearic acid) Administration volume: 10 ml/kg: Protocol: see Table 7
The treatment phase was followed by an observation phase of 21 days.

[7] = tested on: human PC-3 cells; conditions: for Deaths / T/C: 2 administrations per day; for T/C: final tumour weight; for tolerability (good: body weight change <=minus 10% and 100% survival): administration 2 times per day
Experimental: Xenograft models in immunosuppressed mice were used to determine the antitumour activity in living organisms.
Use was made primarily of a prostate carcinoma model with hormone-independent human PC-3 cells in male nude mice (NMRI-nude (nu/nu) mice, Taconic M&B A/S). To this end, 3 million tumour cells (suspended in medium+Matrigel 1:1, final 0.1 ml) were injected subcutaneously into the side of each animal. When the tumours extended to an area of 20-30 mm^2, the mice were randomized into therapy groups and therapy was initiated. […] At this point in time, the experiment was terminated in all groups and the prepared tumours were weighed.
The T/C value was calculated as primary success parameter using the effect on the final tumour weight: mean tumour weight in the treatment group divided by mean of the tumour weight in the vehicle group.
as §2
Vehicle: PEG400/ethanol/Solutol HS 15 (70/5/25, v/v/v)
Administration volume: 10 ml/kg
Number of mice: see Table 8

[8] = Effective AUC from plasma concentration time profile in the PC3 tumour model; assay type: in vivo, mouse; conditions: nu/nu, plasma, oral, read-out: ther. AUC (mouse)
Experimental: The human pharmacokinetic (PK) parameters (Table 9) were predicted based on the in vivo PK parameters obtained for rats (single species scaling), taking into account the interspecies differences in the free fraction (fu) in the plasma. The effective AUC (area under curve) was determined based on the measured plasma concentration time profile for in vivo efficacy in the PC3 tumour model of the mouse (nu/nu mouse).

[9] = from mouse dosage 80 mg/kg 2 × per day
[10] = 100 mg/kg oral, 1 administration per day
[11] = dosage (mouse) 80 mg/kg 2 × per day

SMILES: COC[C@]1(OC)CC[C@@]2(CC1)NC(=O)C(c1cc(-c3ccc(Cl)cc3)ccc1C)=C2O [Example 1-3, (5r,8r)-3-(4′-Chloro-4-methylbiphenyl-3-yl)-4-hydroxy-8-methoxy-8-(methoxymethyl)-1-azaspiro[4.5]dec-3-en-2-one]
- pIC50 [1]: 6.78 and 6.84
- Selectivity ACC1 vs. ACC2 (mean of the individual measurements ± standard deviation) [2]: 47.0 ± 2.1
- Ratio IC50s ACC2/ACC1 (respective measurement) [2]: 49.0 and 44.9
- CLblood [3]: 0.083 mL/min/kg
- clearance ([3]; iv): 0.0333 mL/min/kg
- Vd ([3]; iv): 0.29 L/kg
- half-life [3]: 79 h
- F [3]: 68%
- pIC50 [4]: 5.09 and 5.18

SMILES: COC[C@H]1CC[C@]2(CC1)NC(=O)C(c1cc(-c3ccc(Cl)cc3)ccc1C)=C2O [V.3-b, (5s,8s)-3-(4′-Chloro-4-methylbiphenyl-3-yl)-4-hydroxy-8-(methoxymethyl)-1-azaspiro[4.5]dec-3-en-2-one]
- Selectivity ACC1 vs. ACC2 (mean of the individual measurements ± standard deviation) [2]: 6.4
- Ratio IC50s ACC2/ACC1 (respective measurement) [2]: 6.4

SMILES: CO[C@]1(C(F)(F)F)CC[C@]2(CC1)NC(=O)C(c1cc(-c3ccc(Cl)cc3)ccc1C)=C2O [Example 1-1, (5r,8r)-3-(4′-Chloro-4-methylbiphenyl-3-yl)-4-hydroxy-8-methoxy-8-(trifluoromethyl)-1-azaspiro[4.5]dec-3-en-2-one]
- AUC [5, 9]: 1160 µg·h/mL
- clearance [5]: 0.0333 mL/min/kg
- Deaths ([6]; 12.5 mg/kg oral, 1 administration per day): 0 of 4
- Deaths ([6]; 25 mg/kg oral, 1 administration per day): 0 of 4
- Deaths ([6]; 50 mg/kg oral, 1 administration per day): 1 of 4
- Deaths ([6]; 75 mg/kg oral, 1 administration per day): 0 of 4
- Deaths [6, 10]: 0 of 4
- MTD at 21 days ([6]; 21-day treatment, oral): > 100 mg/kg
- Deaths ([7]; 80 mg/kg oral, 15 days): 0 of 10
- T/C ([7]; 80 mg/kg oral, 15 days): 0.34
- tolerability (good: body weight change <=minus 10% and 100% survival) ([7]; 80 mg/kg): good tolerability
- CLblood [3]: 0.183 mL/min/kg
- clearance ([3]; intravenous): 0.1 mL/min/kg
- Vd ([3]; intravenous): 0.85 L/kg
- half-life [3]: 103 h
- F [3]: 163%
- AUC [8, 11]: 289 µg·h/mL

SMILES: COC[C@H]1CC[C@]2(CC1)NC(=O)C(c1cc(-c3ccc(Cl)c(F)c3)ccc1C)=C2O [V.4-b, (5s,8s)-3-(4′-Chloro-3′-fluoro-4-methylbiphenyl-3-yl)-4-hydroxy-8-(methoxymethyl)-1-azaspiro[4.5]dec-3-en-2-one]
- pIC50 [1]: 7.14
- Selectivity ACC1 vs. ACC2 (mean of the individual measurements ± standard deviation) [2]: 15.2
- Ratio IC50s ACC2/ACC1 (respective measurement) [2]: 15.2
- pIC50 [4]: 5.95

SMILES: COC[C@]1(OC)CC[C@@]2(CC1)NC(=O)C(c1cc(-c3ccc(Cl)c(F)c3)ccc1C)=C2O [Example 1-4, (5r,8r)-3-(4′-Chloro-3′-fluoro-4-methylbiphenyl-3-yl)-4-hydroxy-8-methoxy-8-(methoxymethyl)-1-azaspiro[4.5]dec-3-en-2-one]
- AUC [5, 9]: 4130 µg·h/mL
- clearance [5]: 0.05 mL/min/kg
- Deaths ([6]; 25 mg/kg oral, 2 administrations per day): 0 of 4
- Deaths ([6]; 50 mg/kg oral, 2 administrations per day): 0 of 4
- Deaths ([6]; 75 mg/kg oral, 2 administrations per day): 0 of 4
- Deaths [6, 10]: 0 of 4
- Deaths ([6]; 100 mg/kg oral, 2 administrations per day): 0 of 4
- MTD ([6]; 21-day treatment, administration twice per day, oral): higher than 100 mg/kg
- MTD at 21 days ([6]; 21-day treatment, oral): > 100 mg/kg
- Deaths ([7]; 80 mg/kg oral, 17 days): 0 of 10
- T/C ([7]; 80 mg/kg oral, 17 days): 0.29
- tolerability (good: body weight change <=minus 10% and 100% survival) ([7]; 80 mg/kg): good tolerability
- CLblood [3]: 0.183 mL/min/kg
- clearance ([3]; intravenous): 0.117 mL/min/kg
- Vd ([3]; intravenous): 0.44 L/kg
- half-life [3]: 51 h
- F [3]: 83%
- AUC [8, 11]: 712 µg·h/mL

SMILES: CO[C@]1(C(F)(F)F)CC[C@]2(CC1)NC(=O)C(c1cc(-c3ccc(Cl)c(F)c3)ccc1C)=C2O [Example 1-2, (5r,8r)-3-(4′-Chloro-3′-fluoro-4-methylbiphenyl-3-yl)-4-hydroxy-8-methoxy-8-(trifluoromethyl)-1-azaspiro[4.5]dec-3-en-2-one]
- AUC ([5]; from mouse dosage 40 mg/kg 2 × per day): 355 µg·h/mL
- AUC [5, 9]: 842 µg·h/mL
- clearance [5]: 0.15 mL/min/kg
- Deaths ([7]; 40 mg/kg oral, 17 days): 0 of 9
- T/C ([7]; 40 mg/kg oral, 17 days): 0.44
- tolerability (good: body weight change <=minus 10% and 100% survival) ([7]; 40 mg/kg): good tolerability
- Deaths ([7]; 80 mg/kg oral, 17 days): 0 of 9
- T/C ([7]; 80 mg/kg oral, 17 days): 0.28
- tolerability (good: body weight change <=minus 10% and 100% survival) ([7]; 80 mg/kg): good tolerability
- CLblood [3]: 0.65 mL/min/kg
- clearance ([3]; intravenous): 0.483 mL/min/kg
- Vd ([3]; intravenous): 2.4 L/kg
- half-life [3]: 65 h
- F [3]: 131%
- AUC ([8]; dosage (mouse) 40 mg/kg 2 × per day): 66 µg·h/mL
- AUC [8, 11]: 156 µg·h/mL

Reference: patent publication US9278925B2, “Substituted 3-(biphenyl-3-yl)-4-hydroxy-8-methoxy-1-azaspiro[4.5]dec-3-en-2-one” (BAYER INTELLECTUAL PROPERTY GMBH, priority 2011, dated 2016)
